Where two headings read alike, the source gives them in different places.
Assays:
[1] = target: ColH; conditions: literature inhibitor; cited from earlier work
[2] = in vitro; conditions: human, HepG2 cells (hepatocellular carcinoma)
[3] = in vitro; conditions: human, HEK293 cells (embryonal kidney)
[4] = in vitro; conditions: human, A549 cells (lung carcinoma)
[5] = target: peptidase domain of ColH (ColH-PD) (Hathewaya histolytica, UniProt Q46085); assay: biochemical; set-up: species or system Clostridium histolyticum; conditions: for inhibition at 1 µM: read-out: ColH-PD % inhibition @ 1 μM
peptidase domain of ColH (ColH-PD), sequence (Q46085 331-721 limits assumed): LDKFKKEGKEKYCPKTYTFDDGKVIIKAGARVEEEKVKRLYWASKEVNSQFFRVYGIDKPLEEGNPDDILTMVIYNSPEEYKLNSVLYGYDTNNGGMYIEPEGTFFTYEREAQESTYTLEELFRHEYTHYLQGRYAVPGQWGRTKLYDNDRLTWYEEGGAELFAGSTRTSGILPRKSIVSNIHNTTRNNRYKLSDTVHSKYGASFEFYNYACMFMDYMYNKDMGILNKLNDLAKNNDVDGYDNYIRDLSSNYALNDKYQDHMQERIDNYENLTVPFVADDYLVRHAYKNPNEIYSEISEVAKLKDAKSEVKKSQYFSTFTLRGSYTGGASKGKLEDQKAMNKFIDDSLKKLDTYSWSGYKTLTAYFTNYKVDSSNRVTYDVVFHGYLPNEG

[6] = target: T1, LasB (Pseudomonas aeruginosa, UniProt Q02RJ6); assay: biochemical; conditions: LasB IC50, FRET-based assay
T1 sequence (Q02RJ6 198-498): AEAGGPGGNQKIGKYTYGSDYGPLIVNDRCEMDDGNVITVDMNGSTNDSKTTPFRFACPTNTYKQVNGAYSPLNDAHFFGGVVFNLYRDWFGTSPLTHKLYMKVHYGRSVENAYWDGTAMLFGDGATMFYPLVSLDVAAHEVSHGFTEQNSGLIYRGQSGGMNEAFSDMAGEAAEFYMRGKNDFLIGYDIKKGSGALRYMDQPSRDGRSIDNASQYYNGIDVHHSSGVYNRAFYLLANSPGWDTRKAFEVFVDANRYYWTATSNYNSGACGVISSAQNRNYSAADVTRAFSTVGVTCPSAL

[7] = target: T1, LasB
[8] = test system: P. aeruginosa strain PA14; assay: Bacterial growth inhibition assay (MIC) P. aeruginosa; format: cell-based, Pseudomonas aeruginosa
[9] = target: collagenase unit of ColG (ColG-CU) (Hathewaya histolytica, UniProt Q9X721); assay: biochemical; set-up: species or system C. histolyticum; conditions: read-out: ColG-CU % inhibition @ 100 μM
collagenase unit of ColG (ColG-CU), sequence (Q9X721 111-786): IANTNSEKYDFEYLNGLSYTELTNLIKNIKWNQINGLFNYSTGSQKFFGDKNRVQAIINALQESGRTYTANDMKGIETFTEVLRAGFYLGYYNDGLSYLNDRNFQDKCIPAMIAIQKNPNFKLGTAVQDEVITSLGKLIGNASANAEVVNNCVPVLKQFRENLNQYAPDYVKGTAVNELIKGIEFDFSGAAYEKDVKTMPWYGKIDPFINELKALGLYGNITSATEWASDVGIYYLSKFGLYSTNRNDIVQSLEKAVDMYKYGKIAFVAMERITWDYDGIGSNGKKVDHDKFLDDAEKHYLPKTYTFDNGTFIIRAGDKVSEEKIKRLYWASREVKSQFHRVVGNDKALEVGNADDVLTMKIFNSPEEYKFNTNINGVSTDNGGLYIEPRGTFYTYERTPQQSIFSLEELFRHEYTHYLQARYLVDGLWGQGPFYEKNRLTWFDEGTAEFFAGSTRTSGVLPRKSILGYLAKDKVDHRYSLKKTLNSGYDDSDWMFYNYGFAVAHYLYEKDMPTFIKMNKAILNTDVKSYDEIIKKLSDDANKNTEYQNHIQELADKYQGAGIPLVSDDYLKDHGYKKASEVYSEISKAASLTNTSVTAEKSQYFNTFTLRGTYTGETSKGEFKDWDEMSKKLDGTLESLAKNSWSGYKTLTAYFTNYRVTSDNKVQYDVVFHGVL

[10] = target: peptidase domain of ColT (ColT-PD) (Clostridium tetani, UniProt Q899Y1); assay: biochemical; set-up: species or system C. tetani; conditions: read-out: ColT-PD % inhibition @ 100 μM
peptidase domain of ColT (ColT-PD), sequence (Q899Y1 340-731 limits assumed): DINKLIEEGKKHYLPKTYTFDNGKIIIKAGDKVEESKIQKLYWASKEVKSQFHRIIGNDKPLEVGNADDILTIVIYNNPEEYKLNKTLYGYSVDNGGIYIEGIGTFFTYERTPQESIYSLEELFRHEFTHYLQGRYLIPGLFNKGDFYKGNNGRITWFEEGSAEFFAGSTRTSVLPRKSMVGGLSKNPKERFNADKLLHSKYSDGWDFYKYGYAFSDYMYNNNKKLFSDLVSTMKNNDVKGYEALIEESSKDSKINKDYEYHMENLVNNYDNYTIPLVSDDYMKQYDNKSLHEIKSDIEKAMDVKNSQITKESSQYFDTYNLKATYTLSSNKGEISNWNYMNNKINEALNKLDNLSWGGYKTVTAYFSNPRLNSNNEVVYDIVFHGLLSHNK

[11] = target: T2, collagenase unit of ColQ1 (ColQ1-CU) (Bacillus cereus, UniProt B9J3S4); assay: biochemical; set-up: species or system B. cereus strain Q1; conditions: read-out: ColQ1-CU % inhibition @ 100 μM
T2 construct: the collagenase unit of ColQ1 (ColQ1-CU) from B. cereus strain Q1
T2 sequence (B9J3S4 94-765 limits assumed): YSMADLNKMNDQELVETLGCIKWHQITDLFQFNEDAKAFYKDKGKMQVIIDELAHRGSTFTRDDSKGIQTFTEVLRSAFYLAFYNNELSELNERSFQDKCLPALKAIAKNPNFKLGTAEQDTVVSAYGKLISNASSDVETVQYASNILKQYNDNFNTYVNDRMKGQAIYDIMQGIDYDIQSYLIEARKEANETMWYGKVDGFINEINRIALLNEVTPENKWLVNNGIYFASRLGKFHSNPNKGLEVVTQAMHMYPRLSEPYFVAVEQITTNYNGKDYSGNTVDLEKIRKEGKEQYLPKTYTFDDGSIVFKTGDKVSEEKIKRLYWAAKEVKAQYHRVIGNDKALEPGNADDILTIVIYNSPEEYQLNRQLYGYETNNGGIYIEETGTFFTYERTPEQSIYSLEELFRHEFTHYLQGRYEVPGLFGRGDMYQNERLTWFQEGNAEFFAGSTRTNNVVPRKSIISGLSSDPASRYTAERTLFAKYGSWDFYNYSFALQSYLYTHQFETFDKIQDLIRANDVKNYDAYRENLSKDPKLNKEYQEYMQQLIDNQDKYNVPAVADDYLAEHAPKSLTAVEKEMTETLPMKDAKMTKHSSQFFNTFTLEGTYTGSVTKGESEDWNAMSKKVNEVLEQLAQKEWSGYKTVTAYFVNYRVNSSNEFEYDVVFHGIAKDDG

| Structure (SMILES) | inhibition at 1 µM [5] | IC50 [6] | further results |
| --- | --- | --- | --- |
| CC(C(=O)NO)N(Cc1ccccc1[N+](=O)[O-])S(=O)(=O)c1c(F)c(F)c(F)c(F)c1F (centres unmarked) [Compound 3] | – | – | Ki [1]: 0.005 µM |
| CC(NC(=O)C(Cc1ccccc1)NC(=O)NS(=O)(=O)c1ccc(F)cc1)C(=O)Nc1nnc(S)s1 (centres unmarked) [Compound 4] | – | – | Ki [1]: 0.2 µM |
| CC(=O)c1ccc(NC(=O)CS)cc1 [Compound 6, reference compound] | – | – | IC50 [2]: > 100 µM; IC50 [3]: 100 µM; IC50 [4]: > 100 µM |
| O=C1CC(S)C(=O)N1c1ccccc1 (centres unmarked) [Compound 7] | 8 ± 2% | 44.2 ± 2.3 µM | – |
| Cc1ccc(N2C(=O)CC(S)C2=O)cc1 (centres unmarked) [Compound 8] | 34% | 50.6 ± 1.6 µM | – |
| Cc1ccc(N2C(=O)CC(S)C2=O)cc1C (centres unmarked) [Compound 9] | 7 ± 2% | 29.4 ± 0.9 µM | difference in LasB activity between 9 and 22 ([7]; ratio of IC50 values, 9 more active): 5 fold |
| O=C1CC(S)C(=O)N1c1ccccc1Cl (centres unmarked) [Compound 10] | 8 ± 1% | 8.5 ± 0.4 µM | – |
| O=C1CC(S)C(=O)N1c1cccc(Cl)c1 (centres unmarked) [Compound 11] | 0% | 8.1 ± 0.5 µM | – |
| O=C1CC(S)C(=O)N1c1ccc(Cl)cc1 (centres unmarked) [Compound 12] | 33% | 16.5 ± 0.8 µM | – |
| O=C1CC(S)C(=O)N1c1c(Cl)cccc1Cl (centres unmarked) [Compound 14] | 8 ± 3% | 16 ± 3.7 µM | – |
| O=C1CC(S)C(=O)N1c1ccc(F)c(F)c1 (centres unmarked) [Compound 15] | 2 ± 2% | 3.5 ± 0.2 µM | MIC [8]: >100 µM; MIC ([8]; Pseudomonas aeruginosa): > 100 µM |
| Cc1ccc(Cl)cc1N1C(=O)CC(S)C1=O (centres unmarked) [Compound 16] | 6 ± 1% | 15 ± 0.6 µM | – |
| Cc1ccc(Cl)c(C)c1N1C(=O)CC(S)C1=O (centres unmarked) [Compound 17] | 6 ± 5% | 30.5 ± 5.4 µM | – |
| COc1ccccc1N1C(=O)CC(S)C1=O (centres unmarked) [Compound 18] | 0% | 28.9 ± 1.6 µM | – |
| COc1cccc(N2C(=O)CC(S)C2=O)c1 (centres unmarked) [Compound 19] | -3 ± 9% | 40.2 ± 1.4 µM | – |
| COc1ccc(N2C(=O)CC(S)C2=O)cc1 (centres unmarked) [Compound 20] | 74% | 112 ± 8.9 µM | IC50 [5]: 0.32 ± 0.05 µM; inhibition at 100 µM ([5]; read-out: ColH-PD % inhibition @ 100 μM): 95 ± 1%; inhibition at 100 µM [9]: 85 ± 3%; inhibition at 100 µM [10]: 89 ± 4%; inhibition at 100 µM [11]: 99 ± 1% |

| Structure (SMILES) | inhibition at 1 µM [5] | IC50 [6] | further results |
| --- | --- | --- | --- |
| COc1ccc(N2C(=O)CC(S)C2=O)c(OC)c1 (centres unmarked) [Compound 21] | 2 ± 13% | 45 ± 0.8 µM | – |
| COc1ccc(N2C(=O)CC(S)C2=O)cc1OC (centres unmarked) [Compound 22] | 3 ± 11% | 160 ± 10.1 µM | loss in LasB activity compared to 13 ([7]; ratio of IC50 values): 47 fold |
| O=C1CC(S)C(=O)N1c1ccc(OC(F)(F)F)c(Cl)c1 (centres unmarked) [Compound 23] | 18 ± 12% | 55.2 ± 4.4 µM | – |
| O=C1CC(S)C(=O)N1c1cccc([N+](=O)[O-])c1 (centres unmarked) [Compound 24] | 4 ± 4% | 22.2 ± 0.4 µM | – |
| O=C1CC(S)C(=O)N1c1cccc(-c2ccccc2)c1 (centres unmarked) [Compound 26] | 7 ± 4% | 27.6 ± 4 µM | fold more active on LasB than compound 7 [7]: 1.6 fold |
| O=C1CC(S)C(=O)N1c1ccc(-c2ccccc2)cc1 (centres unmarked) [Compound 27] | 5 ± 2% | 44.6 ± 1.1 µM | – |
| COc1ccc(N2C(=O)CC(SC(C)=O)C2=O)cc1 (centres unmarked) [Compound 28] | 24 ± 2% | > 200 µM | – |
| CC(=O)SC1CC(=O)N(c2ccc(Cl)c(Cl)c2)C1=O (centres unmarked) [Compound 29] | -1 ± 7% | > 200 µM | – |
| CC(=O)SC1CC(=O)N(c2ccc(OC(F)(F)F)c(Cl)c2)C1=O (centres unmarked) [Compound 30] | -11 ± 2% | > 200 µM | – |
| CC(=O)SCC1CC(=O)N(c2ccccc2)C1=O (centres unmarked) [Compound 40] | -15 ± 5% | > 200 µM | – |
| CC(=O)SCC1CC(=O)N(c2ccc(Cl)c(Cl)c2)C1=O (centres unmarked) [Compound 41] | -1 ± 2% | > 200 µM | – |
| CC(=O)SCC1CC(=O)N(c2ccc(C(C)=O)cc2)C1=O (centres unmarked) [Compound 42] | 2 ± 5% | > 200 µM | – |
| COc1ccc(N2C(=O)CC(CSC(C)=O)C2=O)cc1 (centres unmarked) [Compound 43] | 4 ± 6% | > 200 µM | – |
| O=C1CC(CS)C(=O)N1c1ccc(Cl)c(Cl)c1 (centres unmarked) [Compound 50] | 2 ± 3% | 5.4 ± 0.7 µM | MIC [8]: >100 µM; MIC ([8]; Pseudomonas aeruginosa): > 100 µM |
| O=C1CC(CS)C(=O)N1c1ccc(F)c(F)c1 (centres unmarked) [Compound 51] | 2 ± 1% | 10.1 ± 1.4 µM | MIC [8]: >100 µM; MIC ([8]; Pseudomonas aeruginosa): > 100 µM |
| CC(=O)c1ccc(N2C(=O)CC(CS)C2=O)cc1 (centres unmarked) [Compound 52] | 8 ± 3% | > 200 µM | – |
